Blank lines part the entries; values can stand above or below the molecule they belong to.
How the values were obtained:
CXCR1 = target: T1, CXCR1 (Homo sapiens, UniProt P25024); assay: CXCR1 Neutrophil Calcium Mobilization; format: cell-based; details: read-out: Potency (IC50), CXCR1
T1 construct: Human monocytes and neutrophils were isolated from healthy volunteers; host or cells: primary human neutrophils
Method: (§1) Chemotaxis, calcium mobilization, and radio-ligand binding assays were conducted as previously described (Sullivan et al, 2013; Walters et al, 2010). Inhibition values (IC50) were calculated using non-linear regression with a one-site competition model (GraphPad Prism, GraphPad Software, La Jolla, Calif.). A2 values for assessment of potency in chemotaxis assays denotes the concentration of the antagonist required to right-shift by 2-fold the chemokine dose-response curve. […] Urinary albumin was measured by ELISA (Bethyl Labs, Montgomery, Tex.). Urinary and serum creatinine was measured by LC-MS/MS at ChemoCentryx. The urinary albumin excretion rate (UAER) was calculated as micrograms per 24 h. Blood urea nitrogen (BUN) was measured by Antech Diagnostics (Morrisville, N.C.). The albumin to creatinine ratio (ACR) was calculated as micrograms of albumin per milligram of creatinine.

CXCR5 = target: T2, CXCR5 (Homo sapiens, UniProt P32302); assay: Baf3-CXCR5 Calcium Mobilization; format: cell-based; details: read-out: Potency (IC50), CXCR5
T2 construct: expressed in transfected cells; host or cells: Baf3
T2 sequence (P32302 whole entry): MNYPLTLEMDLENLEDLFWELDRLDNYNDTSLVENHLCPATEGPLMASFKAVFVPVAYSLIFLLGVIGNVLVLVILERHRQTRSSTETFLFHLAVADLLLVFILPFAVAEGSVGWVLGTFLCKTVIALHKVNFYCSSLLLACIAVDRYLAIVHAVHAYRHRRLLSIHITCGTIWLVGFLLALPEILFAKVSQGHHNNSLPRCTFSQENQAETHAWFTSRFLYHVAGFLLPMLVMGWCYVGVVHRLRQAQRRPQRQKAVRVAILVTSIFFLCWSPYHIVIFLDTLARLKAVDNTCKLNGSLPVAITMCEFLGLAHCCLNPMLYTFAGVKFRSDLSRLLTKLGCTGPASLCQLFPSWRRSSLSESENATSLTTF
Method: as §1

CCR7 = target: T3, CCR7 (Homo sapiens, UniProt P32248); assay: CCR7 Activated Lymphocyte Calcium Mobilization; format: cell-based; details: read-out: Potency (IC50), CCR7
T3 construct: endogenous in cells
Method: as §1

CXCR3 = target: T4, CXCR3 (Homo sapiens, UniProt P49682); assay: CXCR3 Activated Lymphocyte Calcium Mobilization; format: cell-based; details: read-out: Potency (IC50), CXCR3
T4 construct: endogenous in cells
T4 sequence (P49682 whole entry): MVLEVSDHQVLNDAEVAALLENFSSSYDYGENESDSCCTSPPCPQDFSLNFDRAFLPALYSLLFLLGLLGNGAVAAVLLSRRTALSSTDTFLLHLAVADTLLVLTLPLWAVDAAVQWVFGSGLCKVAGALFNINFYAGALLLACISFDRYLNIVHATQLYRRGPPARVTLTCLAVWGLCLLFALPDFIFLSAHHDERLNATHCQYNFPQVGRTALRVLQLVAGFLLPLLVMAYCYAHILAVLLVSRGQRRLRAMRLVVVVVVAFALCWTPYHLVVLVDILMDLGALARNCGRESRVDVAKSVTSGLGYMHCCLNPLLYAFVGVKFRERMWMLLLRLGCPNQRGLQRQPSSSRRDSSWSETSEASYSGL
Method: as §1

CCR1 = target: T5, CCR1 (Homo sapiens, UniProt P32246); assay: CCR1 Monocyte Chemotaxis; format: cell-based; details: read-out: Potency (IC50), CCR1
T5 construct: Human monocytes and neutrophils were isolated from healthy volunteers; host or cells: primary human monocytes
Method: as §1

CCR2 [1] = target: T6, CCR2 (Homo sapiens, UniProt P41597); assay: CCR2 ThP1 Cell Chemotaxis; format: cell-based; details: read-out: Potency (IC50), CCR2
T6 construct: cell lines that either endogenously expressed certain chemokine receptors; host or cells: ThP1
Method: as §1

[2] = tested on: kidneys of 5/6 nephrectomized mice; assay: Histological analysis of kidneys from the 5/6 nephrectomy model; format: in vivo
Method: 5/6 nephrectomy mice on the 129X1/SvJ background were obtained from Jackson Laboratories, and were received at ChemoCentryx after the surgery was performed at JAX. Under isoflurane anesthesia, two-thirds of the left kidney mass was removed at 5-6 weeks of age. Then, after 7 to 10 days, a right unilateral nephrectomy was performed. The mice were fed a standard chow and had free access to water. Three weeks after the 5/6 nephrectomy, the mice were grouped to ensure a similar starting UAER in each treatment group. […] The RAAS blocker candesartan (AK Scientific, Union City, Calif.) and its vehicle were dosed orally once daily at 5 mg/kg formulated in water. […] The mice were housed individually in metabolic cages for quantitative collection of urinary albumin and creatinine.
The kidneys were collected, fixed in formalin, embedded in paraffin, and cut into 5-μm-thick sections. […] Glomerular hypertrophy, mesangial expansion, glomerular sclerosis, and tubular structure were determined by examination of sections by an observer blinded to the treatment groups.
Fixed kidney sections were obtained from 5/6 nephrectomized mice for pathology. The sections were stained and evaluated to determine whether the Compound 1-mediated improvements in renal function were associated with anatomical changes.

CCR10 = target: T7, CCR10 (Homo sapiens, UniProt P46092); assay: 293-CCR10 Calcium Mobilization; format: cell-based; details: read-out: Potency (IC50), CCR10
T7 construct: expressed in transfected cells; host or cells: 293
T7 sequence (P46092 whole entry): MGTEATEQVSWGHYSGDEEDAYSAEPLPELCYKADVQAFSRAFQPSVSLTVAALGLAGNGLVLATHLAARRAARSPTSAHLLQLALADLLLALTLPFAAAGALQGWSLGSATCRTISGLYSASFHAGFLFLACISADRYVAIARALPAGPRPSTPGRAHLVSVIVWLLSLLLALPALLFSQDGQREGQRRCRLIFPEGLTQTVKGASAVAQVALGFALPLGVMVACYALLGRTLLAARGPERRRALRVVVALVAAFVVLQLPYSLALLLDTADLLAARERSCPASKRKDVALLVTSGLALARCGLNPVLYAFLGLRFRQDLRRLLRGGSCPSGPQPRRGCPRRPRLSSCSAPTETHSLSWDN
Method: as §1

CXCR6 = target: T8, CXCR6 (Homo sapiens, UniProt O00574); assay: CXCR6 Activated Lymphocyte Buffer Chemotaxis; format: cell-based; details: read-out: Potency (IC50), CXCR6
T8 construct: endogenous in cells
Method: as §1

CCR8 = target: T9, CCR8 (Homo sapiens, UniProt P51685); assay: 293-CCR8 Calcium Mobilization; format: cell-based; details: read-out: Potency (IC50), CCR8
T9 construct: expressed in transfected cells; host or cells: 293
T9 sequence (P51685 whole entry): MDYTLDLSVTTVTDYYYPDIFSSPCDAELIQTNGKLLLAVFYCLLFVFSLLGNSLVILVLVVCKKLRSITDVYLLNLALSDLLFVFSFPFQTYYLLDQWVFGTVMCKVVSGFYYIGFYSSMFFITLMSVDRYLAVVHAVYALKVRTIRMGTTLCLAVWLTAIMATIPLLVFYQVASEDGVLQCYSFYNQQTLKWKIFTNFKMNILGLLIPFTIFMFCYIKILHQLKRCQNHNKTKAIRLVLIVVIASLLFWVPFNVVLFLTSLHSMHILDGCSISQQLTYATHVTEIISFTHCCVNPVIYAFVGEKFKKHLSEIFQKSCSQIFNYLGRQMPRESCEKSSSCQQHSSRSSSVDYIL
Method: as §1

[3] = tested on: partially nephrectomized mice; assay: 5/6 nephrectomy model; format: in vivo; design: reduction in UACR / UACR reduction vs vehicle: concentration or dose not given beside the values; details: for UACR reduction vs vehicle: 5/6 nephrectomy model (Example 7, FIG. 8), week one; for reduction in UACR: mono-therapy
Method: 5/6 nephrectomy mice on the 129X1/SvJ background were obtained from Jackson Laboratories, and were received at ChemoCentryx after the surgery was performed at JAX. Under isoflurane anesthesia, two-thirds of the left kidney mass was removed at 5-6 weeks of age. Then, after 7 to 10 days, a right unilateral nephrectomy was performed. The mice were fed a standard chow and had free access to water. Three weeks after the 5/6 nephrectomy, the mice were grouped to ensure a similar starting UAER in each treatment group. […] The RAAS blocker candesartan (AK Scientific, Union City, Calif.) and its vehicle were dosed orally once daily at 5 mg/kg formulated in water. Sparsentan, the dual-acting receptor antagonist for endothelin (A type) and angiotensin II receptors (Type 1) (Murugesan et al, 2005) was synthesized at ChemoCentryx and was dosed orally twice daily at 90 mg/kg formulated in 1% HPMC. The mice were housed individually in metabolic cages for quantitative collection of urinary albumin and creatinine.
as §1
To corroborated the above findings, another FSGS model mechanistically distinct from the Adriamycin approach was tested, the 5/6 nephrectomy model. Beginning three weeks after the completion of surgery, the mice were treated with Compound 1 or RAAS blocker either alone or in combination. As above, renal function was quantified by measuring the UACR, UAER serum creatinine and BUN levels.

CCR6 = target: T10, CCR6 (Homo sapiens, UniProt P51684); assay: CCR6 Activated Lymphocyte Calcium Mobilization; format: cell-based; details: read-out: Potency (IC50), CCR6
T10 construct: endogenous in cells
T10 sequence (P51684 whole entry): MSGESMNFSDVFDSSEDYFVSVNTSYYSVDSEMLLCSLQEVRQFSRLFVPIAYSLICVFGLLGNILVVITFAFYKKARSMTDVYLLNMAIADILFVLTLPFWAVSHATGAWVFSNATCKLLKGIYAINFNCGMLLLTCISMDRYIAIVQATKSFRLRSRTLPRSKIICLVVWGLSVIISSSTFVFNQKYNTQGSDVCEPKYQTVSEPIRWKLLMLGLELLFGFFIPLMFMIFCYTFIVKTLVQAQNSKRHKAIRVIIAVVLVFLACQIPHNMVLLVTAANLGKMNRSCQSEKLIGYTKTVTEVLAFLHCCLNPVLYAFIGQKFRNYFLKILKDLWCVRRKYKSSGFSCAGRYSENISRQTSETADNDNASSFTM
Method: as §1

CCR4 = target: T11, CCR4 (Homo sapiens, UniProt P51679); assay: CCR4 Activated Lymphocyte Calcium Mobilization; format: cell-based; details: read-out: Potency (IC50), CCR4
T11 construct: endogenous in cells
T11 sequence (P51679 whole entry): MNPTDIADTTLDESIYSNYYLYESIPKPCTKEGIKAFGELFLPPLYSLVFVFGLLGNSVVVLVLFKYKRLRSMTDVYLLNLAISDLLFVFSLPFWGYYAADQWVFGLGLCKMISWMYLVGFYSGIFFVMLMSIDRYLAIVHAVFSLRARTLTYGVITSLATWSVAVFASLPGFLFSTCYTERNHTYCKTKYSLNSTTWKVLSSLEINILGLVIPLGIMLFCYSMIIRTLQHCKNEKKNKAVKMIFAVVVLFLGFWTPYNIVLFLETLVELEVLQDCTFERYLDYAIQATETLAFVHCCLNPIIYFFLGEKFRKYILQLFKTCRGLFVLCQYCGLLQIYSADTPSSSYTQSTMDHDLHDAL
Method: as §1

CXCR2 = target: T12, CXCR2 (Homo sapiens, UniProt P25025); assay: CXCR2 Neutrophil Calcium Mobilization; format: cell-based; details: read-out: Potency (IC50), CXCR2
T12 construct: Human monocytes and neutrophils were isolated from healthy volunteers; host or cells: primary human neutrophils
T12 sequence (P25025 whole entry): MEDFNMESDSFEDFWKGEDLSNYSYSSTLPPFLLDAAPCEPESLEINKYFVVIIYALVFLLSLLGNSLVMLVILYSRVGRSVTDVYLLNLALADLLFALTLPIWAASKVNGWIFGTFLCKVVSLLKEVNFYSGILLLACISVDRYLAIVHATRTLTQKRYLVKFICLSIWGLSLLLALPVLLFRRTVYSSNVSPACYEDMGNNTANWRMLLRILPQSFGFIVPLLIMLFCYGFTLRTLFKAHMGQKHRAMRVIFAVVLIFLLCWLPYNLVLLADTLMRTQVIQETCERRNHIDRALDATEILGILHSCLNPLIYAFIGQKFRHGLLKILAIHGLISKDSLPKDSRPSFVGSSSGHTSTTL
Method: as §1

[4] = Mouse pharmacokinetic (PK) study; format: in vivo; details: male, 129s, plasma, sc, mice, single s.c. injection at 90 mg/kg, 24 hours post-dosing
Method: Blood was drawn at 0.5, 2, […], 4, 8, 12, and 24 hours post-dosing. Compound 1 drug level was analyzed by LC-MS/MS at ChemoCentryx with plasma samples.
To determine if Compound 1 was suitable for in vivo experiments, we analyzed its pharmacokinetic profile in mice.

CCR3 = target: T13, CCR3 (Homo sapiens, UniProt P51677); assay: 293-CCR3 Calcium Mobilization; format: cell-based; details: read-out: Potency (IC50), CCR3
T13 construct: expressed in transfected cells; host or cells: 293
T13 sequence (P51677 whole entry): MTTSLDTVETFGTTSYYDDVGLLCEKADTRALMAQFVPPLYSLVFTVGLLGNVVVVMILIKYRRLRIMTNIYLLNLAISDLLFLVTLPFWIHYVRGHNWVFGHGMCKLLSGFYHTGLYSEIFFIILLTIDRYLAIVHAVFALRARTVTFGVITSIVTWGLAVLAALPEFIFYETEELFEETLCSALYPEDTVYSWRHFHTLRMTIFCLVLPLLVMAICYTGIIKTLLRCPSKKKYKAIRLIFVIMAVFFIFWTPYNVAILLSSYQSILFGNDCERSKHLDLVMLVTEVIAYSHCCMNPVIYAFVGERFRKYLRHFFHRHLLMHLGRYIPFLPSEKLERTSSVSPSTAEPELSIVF
Method: as §1

CXCR4 = target: T14, CXCR4 (Homo sapiens, UniProt P61073); assay: CXCR4 Activated Lymphocyte Calcium Mobilization; format: cell-based; details: read-out: Potency (IC50), CXCR4
T14 construct: endogenous in cells
Method: as §1

C3aR = target: T15, C3aR (Homo sapiens, UniProt Q16581); assay: C3aR Neutrophil Calcium Mobilization; format: cell-based; details: read-out: Potency (IC50), C3aR
T15 construct: Human monocytes and neutrophils were isolated from healthy volunteers; host or cells: primary human neutrophils
T15 sequence (Q16581 whole entry): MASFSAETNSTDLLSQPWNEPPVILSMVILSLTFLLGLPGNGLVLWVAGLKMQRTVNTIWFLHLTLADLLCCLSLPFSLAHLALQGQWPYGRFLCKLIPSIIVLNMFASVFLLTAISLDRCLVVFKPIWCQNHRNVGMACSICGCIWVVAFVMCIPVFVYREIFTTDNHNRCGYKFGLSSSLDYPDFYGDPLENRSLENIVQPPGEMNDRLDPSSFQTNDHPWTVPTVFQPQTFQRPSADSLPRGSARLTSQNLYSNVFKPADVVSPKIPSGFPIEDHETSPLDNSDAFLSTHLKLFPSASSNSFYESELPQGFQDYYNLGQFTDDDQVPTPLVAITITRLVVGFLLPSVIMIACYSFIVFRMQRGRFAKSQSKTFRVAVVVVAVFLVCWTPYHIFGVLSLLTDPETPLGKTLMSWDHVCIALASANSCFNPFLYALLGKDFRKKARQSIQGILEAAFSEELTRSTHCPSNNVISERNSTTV
Method: as §1

CCR9 = target: T16, CCR9 (Homo sapiens, UniProt P51686); assay: CCR9 Molt4 Serum Chemotaxis; format: cell-based; details: read-out: Potency (IC50), CCR9
T16 construct: cell lines that either endogenously expressed certain chemokine receptors; endogenous in cells; host or cells: Molt4
T16 sequence (P51686 whole entry): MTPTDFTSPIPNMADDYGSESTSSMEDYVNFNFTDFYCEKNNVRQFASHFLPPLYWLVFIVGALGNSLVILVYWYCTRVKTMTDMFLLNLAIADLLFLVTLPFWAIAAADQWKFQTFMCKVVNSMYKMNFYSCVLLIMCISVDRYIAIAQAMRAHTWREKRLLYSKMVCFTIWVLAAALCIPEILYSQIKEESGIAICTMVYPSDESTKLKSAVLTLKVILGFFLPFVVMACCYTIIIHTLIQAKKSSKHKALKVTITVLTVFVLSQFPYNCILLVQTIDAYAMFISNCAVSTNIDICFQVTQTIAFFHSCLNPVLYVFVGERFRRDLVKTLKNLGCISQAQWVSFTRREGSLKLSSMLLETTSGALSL
Method: as §1

C5aR = target: T17, C5aR (Homo sapiens, UniProt P21730); assay: C5aR Neutrophil Calcium Mobilization; format: cell-based; details: read-out: Potency (IC50), C5aR
T17 construct: Human monocytes and neutrophils were isolated from healthy volunteers; host or cells: primary human neutrophils
Method: as §1

CCR2 [5] = target: T18, CCR2 (Mus musculus, UniProt P51683); assay: Inhibition of radio-labeled mJE (CCL2) binding to WEHI-274 cells; details: WEHI-274 murine monocyte cell line endogenously expressing CCR2
T18 construct: WEHI-274 murine monocyte cell line that endogenously expresses CCR2; host or cells: WEHI-274.1
T18 sequence (P51683 whole entry): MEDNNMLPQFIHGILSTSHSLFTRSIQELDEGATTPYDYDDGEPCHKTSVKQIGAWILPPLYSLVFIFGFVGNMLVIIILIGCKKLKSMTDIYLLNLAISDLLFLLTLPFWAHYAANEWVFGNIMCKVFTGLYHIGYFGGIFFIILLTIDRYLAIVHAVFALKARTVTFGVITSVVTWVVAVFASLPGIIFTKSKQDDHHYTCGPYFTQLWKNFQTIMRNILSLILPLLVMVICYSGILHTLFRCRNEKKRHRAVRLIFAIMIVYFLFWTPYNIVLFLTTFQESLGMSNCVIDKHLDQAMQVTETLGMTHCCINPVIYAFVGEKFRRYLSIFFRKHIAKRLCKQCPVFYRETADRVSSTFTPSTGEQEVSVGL
Method: as §1

[6] = tested on: Adriamycin challenged mice; assay: Adriamycin induced FSGS model; format: in vivo; details: for UAER: Adriamycin nephropathy model, Compound 1 90 mg/kg s.c. once daily, RAAS blocker 5 mg/kg orally once daily
Method: These experiments were performed using female Balb/c mice (Jackson Laboratories, Bar Harbor, Me.). The mice were kept on standard chow and had free access to water. At age of 10 weeks, 7.5 mg/kg Adriamycin (Selleck Chemicals, Houston, Tex.) or saline (control) was injected via tail vein in isoflurane-anesthetized animals (day 0). […] The RAAS blocker Candesartan (AK Scientific, Union City, Calif.) and its vehicle were dosed orally once daily at 5 mg/kg, formulated in water. All dosing started 2 hours prior Adriamycin challenge. The mice were housed individually in metabolic cages for quantitative collection of urinary albumin and creatinine. Chemotaxis, calcium mobilization, and radio-ligand binding assays were conducted as previously described (Sullivan et al, 2013; Walters et al, 2010). Inhibition values (IC50) were calculated using non-linear regression with a one-site competition model (GraphPad Prism, GraphPad Software, La Jolla, Calif.). A2 values for assessment of potency in chemotaxis assays denotes the concentration of the antagonist required to right-shift by 2-fold the chemokine dose-response curve. […] Urinary albumin was measured by ELISA (Bethyl Labs, Montgomery, Tex.). Urinary and serum creatinine was measured by LC-MS/MS at ChemoCentryx. The urinary albumin excretion rate (UAER) was calculated as micrograms per 24 h. Blood urea nitrogen (BUN) was measured by Antech Diagnostics (Morrisville, N.C.). The albumin to creatinine ratio (ACR) was calculated as micrograms of albumin per milligram of creatinine. […] Adriamycin is an oncolytic antibiotic that induces proteinuria and glomerulosclerosis in rodents after a single infusion. […] The level of protection was equal to or better than that of RAAS blockade.

CXCR7 = target: T19, CXCR7 (Homo sapiens, UniProt P25106); assay: 293-CXCR7 Radio-ligand Binding; details: read-out: Potency (IC50), CXCR7
T19 construct: expressed in transfected cells; host or cells: 293
T19 sequence (P25106 whole entry): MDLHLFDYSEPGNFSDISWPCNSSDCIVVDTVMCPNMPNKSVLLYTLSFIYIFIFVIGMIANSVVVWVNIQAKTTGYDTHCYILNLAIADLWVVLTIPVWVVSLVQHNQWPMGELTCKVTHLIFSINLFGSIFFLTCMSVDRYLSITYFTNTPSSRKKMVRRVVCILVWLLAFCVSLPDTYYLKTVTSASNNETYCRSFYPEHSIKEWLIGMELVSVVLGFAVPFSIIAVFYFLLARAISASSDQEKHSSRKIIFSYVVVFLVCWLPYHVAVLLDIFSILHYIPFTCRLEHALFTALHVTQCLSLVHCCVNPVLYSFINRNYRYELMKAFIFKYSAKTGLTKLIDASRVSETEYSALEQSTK
Method: as §1

[7] = 5/6 nephrectomy model (Table 3), Week 1, Compound 1 90 mg/kg, RAAS Blocker 5 mg/kg
[8] = 5/6 nephrectomy model (Table 3), Week 2, Compound 1 90 mg/kg, RAAS Blocker 5 mg/kg
[9] = 5/6 nephrectomy model (Table 3), Week 3, Compound 1 90 mg/kg, RAAS Blocker 5 mg/kg
[10] = 5/6 nephrectomy model, comparison with ET1/AT2 dual inhibitor (Table 4), Week 1
[11] = 5/6 nephrectomy model, comparison with ET1/AT2 dual inhibitor (Table 4), Week 2
[12] = 5/6 nephrectomy model, comparison with ET1/AT2 dual inhibitor (Table 4), Week 4

T1 sequence (P25024 whole entry): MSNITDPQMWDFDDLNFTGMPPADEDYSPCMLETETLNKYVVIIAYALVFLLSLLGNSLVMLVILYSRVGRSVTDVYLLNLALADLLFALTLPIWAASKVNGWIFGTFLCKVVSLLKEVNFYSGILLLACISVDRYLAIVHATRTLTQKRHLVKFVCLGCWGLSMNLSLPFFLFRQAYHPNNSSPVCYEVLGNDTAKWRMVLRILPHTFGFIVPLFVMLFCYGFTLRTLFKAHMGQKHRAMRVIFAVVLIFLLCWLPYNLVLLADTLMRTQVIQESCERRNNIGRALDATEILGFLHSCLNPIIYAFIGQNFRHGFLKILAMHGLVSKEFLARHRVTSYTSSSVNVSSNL

IC50 (CXCR1): > 10 µM
IC50 (CXCR5): > 10 µM
IC50 (CCR7): > 10 µM
IC50 (CXCR3): > 10 µM
IC50 (CCR1): > 10 µM
IC50 (CCR2 [1]): 0.5 nM
IC50 (CCR10): > 10 µM
IC50 (CXCR6): > 10 µM
IC50 (CCR8): > 10 µM
IC50 (CCR6): > 8 µM
IC50 (CCR4): > 10 µM
IC50 (CXCR2): > 10 µM
concentration at 24 h [4]: ~3.5 µM
IC50 (CCR3): > 10 µM
IC50 (CXCR4): > 10 µM
IC50 (C3aR): > 10 µM
IC50 (CCR9): > 10 µM
IC50 (C5aR): > 10 µM
IC50 (CCR2 [5]): 270 nM
IC50 (CXCR7): > 10 µM
Compound: Cc1cnc(C(=O)c2ccnc3[nH]ccc23)c(NS(=O)(=O)c2ccc(Cl)c(C(F)(F)F)c2)c1 [Compound 1]
kidney histology at 400× magnification (glomeruli), in words [2]: decreased glomerular sclerosis, mesangial expansion, hyaline deposits and tubular collapse
kidney histology at 100× magnification, in words ([2]; with respect to vehicle control): reductions in tubular dilation and hyaline deposits
UACR reduction vs vehicle [3]: 64.8%
UAER [3, 7]: 15.68, p = 0.30 mg/day
UAER [3, 8]: 6.72, p = 0.07 mg/day
UAER [3, 9]: 11.75, p = 0.001 mg/day
UAER [3, 10]: 7.1, p = 0.07 mg/day
UAER [3, 11]: 11.0, p = 0.1 mg/day
UAER [3, 12]: 2.8, p = 0.02 mg/day
UACR, in words ([3]; 5/6 nephrectomy model, four-week study): markedly reduced
reduction in UACR ([3]; 5/6 nephrectomy model, week four): 57%
reduction in UACR ([3]; 5/6 nephrectomy model, week three): 72%
creatinine and BUN, in words ([3]; 5/6 nephrectomy model, with respect to vehicle control, four-week time point): marked reductions
UAER ([6]; Week 1): 26.15, p = 0.06 mg/day
UAER ([6]; Week 2): 24.19, p = 0.032 mg/day
UAER, in words ([6]; Adriamycin treated mice): significant reduction

Compound: CCCCC1=NC2(CCCC2)C(=O)N1Cc1ccc(-c2ccccc2S(=O)(=O)Nc2noc(C)c2C)c(COCC)c1 [ET1/AT2 Dual Blocker, Sparsentan, reference compound]
UACR reduction vs vehicle [3]: 93.5%
UAER [3, 10]: 2.6, p = 0.036 mg/day
UAER [3, 11]: 1.5, p = 0.01 mg/day
UAER [3, 12]: 1.15, p = 0.001 mg/day

Compound: CCOc1nc2cccc(C(=O)O)c2n1Cc1ccc(-c2ccccc2-c2nnn[nH]2)cc1 [RAAS Blocker, Candesartan, reference compound]
UACR reduction vs vehicle [3]: 73.4%
UAER [3, 7]: 8.27, p = 0.03 mg/day
UAER [3, 8]: 3.62, p = 0.03 mg/day
UAER [3, 9]: 3.32, p < 0.0001 mg/day
UAER [3, 10]: 9.4, p = 0.27 mg/day
UAER [3, 11]: 7.7, p = 0.06 mg/day
UAER [3, 12]: 1.7, p = 0.02 mg/day
UAER ([6]; Week 1): 39.46, p = 0.16 mg/day
UAER ([6]; Week 2): 66.87 mg/day
